Assays:
Experiment in all cases: kinase panel, […] compound, […] ATP
Assay type in all cases: biochemical
Conditions in all cases: read-out: % inhibition at 1 μM
[1] = molecular target: T1, GCK (Homo sapiens, UniProt Q12851)
T1 sequence (Q12851 1-820): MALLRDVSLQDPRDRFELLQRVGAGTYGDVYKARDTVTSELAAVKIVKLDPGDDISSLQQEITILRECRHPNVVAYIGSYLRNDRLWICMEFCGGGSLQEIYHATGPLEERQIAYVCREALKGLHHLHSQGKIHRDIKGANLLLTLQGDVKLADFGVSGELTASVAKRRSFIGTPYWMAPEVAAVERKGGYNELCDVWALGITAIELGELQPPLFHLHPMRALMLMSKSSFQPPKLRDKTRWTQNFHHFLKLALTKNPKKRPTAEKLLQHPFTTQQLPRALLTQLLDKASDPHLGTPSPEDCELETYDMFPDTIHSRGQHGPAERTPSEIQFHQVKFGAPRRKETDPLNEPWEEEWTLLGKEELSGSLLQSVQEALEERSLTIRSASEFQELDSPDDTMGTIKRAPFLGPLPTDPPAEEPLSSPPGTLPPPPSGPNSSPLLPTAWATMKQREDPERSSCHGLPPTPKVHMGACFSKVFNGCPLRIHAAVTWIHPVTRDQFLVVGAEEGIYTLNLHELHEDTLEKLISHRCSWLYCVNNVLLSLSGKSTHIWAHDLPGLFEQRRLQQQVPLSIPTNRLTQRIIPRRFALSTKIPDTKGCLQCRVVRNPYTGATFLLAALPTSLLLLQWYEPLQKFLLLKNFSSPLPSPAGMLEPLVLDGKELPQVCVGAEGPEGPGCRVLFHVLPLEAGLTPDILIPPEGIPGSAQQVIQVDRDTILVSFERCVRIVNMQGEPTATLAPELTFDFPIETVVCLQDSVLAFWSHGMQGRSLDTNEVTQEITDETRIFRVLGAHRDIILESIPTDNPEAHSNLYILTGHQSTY

[2] = molecular target: MARK3 (Homo sapiens, UniProt P27448)
Sequence of MARK3 (P27448 whole entry): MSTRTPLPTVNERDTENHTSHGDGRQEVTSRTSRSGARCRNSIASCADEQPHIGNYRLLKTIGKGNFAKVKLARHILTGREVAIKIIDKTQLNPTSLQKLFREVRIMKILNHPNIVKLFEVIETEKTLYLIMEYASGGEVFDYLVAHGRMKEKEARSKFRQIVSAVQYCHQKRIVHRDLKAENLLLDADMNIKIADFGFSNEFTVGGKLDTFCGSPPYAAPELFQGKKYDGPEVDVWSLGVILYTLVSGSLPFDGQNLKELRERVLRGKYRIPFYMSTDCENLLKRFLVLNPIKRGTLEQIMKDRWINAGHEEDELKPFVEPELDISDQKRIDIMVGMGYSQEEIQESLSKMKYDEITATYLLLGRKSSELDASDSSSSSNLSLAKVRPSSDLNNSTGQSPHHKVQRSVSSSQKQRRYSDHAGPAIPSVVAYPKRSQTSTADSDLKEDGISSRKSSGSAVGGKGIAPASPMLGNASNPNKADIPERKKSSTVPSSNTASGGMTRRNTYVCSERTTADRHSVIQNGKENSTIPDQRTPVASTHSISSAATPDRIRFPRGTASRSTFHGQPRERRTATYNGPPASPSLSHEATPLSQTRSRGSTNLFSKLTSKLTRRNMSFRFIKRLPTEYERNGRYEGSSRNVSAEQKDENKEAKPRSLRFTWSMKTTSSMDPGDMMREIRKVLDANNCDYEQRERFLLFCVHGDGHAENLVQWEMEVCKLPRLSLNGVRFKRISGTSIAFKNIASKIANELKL

[3] = molecular target: MLK1 (Homo sapiens, UniProt P80192)
Sequence of MLK1 (P80192 whole entry): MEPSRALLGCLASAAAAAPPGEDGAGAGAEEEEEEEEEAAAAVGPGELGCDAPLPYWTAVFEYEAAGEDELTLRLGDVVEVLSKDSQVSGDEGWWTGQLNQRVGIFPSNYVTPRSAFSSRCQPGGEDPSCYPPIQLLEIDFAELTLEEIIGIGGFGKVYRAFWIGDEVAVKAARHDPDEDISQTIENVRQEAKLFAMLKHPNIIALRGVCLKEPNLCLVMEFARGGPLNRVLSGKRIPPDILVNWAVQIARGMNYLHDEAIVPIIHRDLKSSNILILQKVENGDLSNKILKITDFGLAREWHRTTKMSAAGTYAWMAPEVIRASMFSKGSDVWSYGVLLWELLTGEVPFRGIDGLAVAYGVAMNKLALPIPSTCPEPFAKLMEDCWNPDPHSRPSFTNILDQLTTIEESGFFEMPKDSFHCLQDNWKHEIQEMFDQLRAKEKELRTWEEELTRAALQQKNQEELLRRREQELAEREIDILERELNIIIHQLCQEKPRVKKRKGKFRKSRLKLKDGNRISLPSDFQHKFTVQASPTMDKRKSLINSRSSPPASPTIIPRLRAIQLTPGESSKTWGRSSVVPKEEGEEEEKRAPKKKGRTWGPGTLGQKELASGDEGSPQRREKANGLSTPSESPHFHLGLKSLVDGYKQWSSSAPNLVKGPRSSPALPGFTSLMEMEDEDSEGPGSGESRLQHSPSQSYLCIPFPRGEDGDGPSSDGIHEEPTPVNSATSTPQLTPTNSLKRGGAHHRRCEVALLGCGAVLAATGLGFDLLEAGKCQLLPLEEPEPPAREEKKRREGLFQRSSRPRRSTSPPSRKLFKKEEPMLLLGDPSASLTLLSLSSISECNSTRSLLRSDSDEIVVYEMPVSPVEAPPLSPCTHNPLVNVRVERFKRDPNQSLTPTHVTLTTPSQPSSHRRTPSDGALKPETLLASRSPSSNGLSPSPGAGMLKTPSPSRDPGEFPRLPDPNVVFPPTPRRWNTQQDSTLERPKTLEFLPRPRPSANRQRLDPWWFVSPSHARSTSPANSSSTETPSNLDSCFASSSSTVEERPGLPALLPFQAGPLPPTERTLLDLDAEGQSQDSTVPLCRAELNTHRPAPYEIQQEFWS

Measured: inhibition at 1 µM

COc1cc2nc(-c3cc(F)ccc3O)nc(N[C@@H]3CNC[C@H]3C(C)(C)O)c2cc1OC [CCT241533]
> 80%: all assays above

Reference: publication PMC4948722 (Cancer research, 2011)
